From patent US6488912B1, “Treatment of dentoalveolar infections with taurolidine and/or taurultam” (Ed. Geistlich Soehne AG fuer Chemische Industrie, priority 1992, dated 2002)

Legend:
[1] = background statement; cited from earlier work
Parodontitis marginalis = assay: Controlled clinical trial, total treatment time to complete remission: parodontitis; format: in vivo, patients; details: TAUR: T-Liquid gel 3% + T-Dental emulsion 3%, STANDARD: DONTISOLON Ointment M, n=100 per group
Protocol: (§1) The in-vivo tests were carried out at the Clinic for Maxillofacial Surgery, Munich University between 1989 and 1992. In accordance with modern biometric principles the study was planned as a controlled clinical trial, i.e. it was conducted according to a prospective, protective, randomized, monocentre and simple blind design.
(§2) The test substances investigated were 4 different galenic presentation forms of the active component taurolidine and 4 conventional finished pharmaceuticals.
(§3) For each of the 6 indications investigated an exact therapeutic procedure was fixed. The surgical management was carried out according to the individual situation in the usual manner. Tables 1 and 2 show the antimicrobial therapy regimens defined for patient groups A (Taurolidine group) and B (Standard group). It is evident, that the only difference, with the same quantity of substance applied in the same form, was the choice of preparation.
(§4) For critical examination of the effectiveness of the different pharmaceuticals concerning therapeutic success and total treatment time clinical parameters reflecting the progress of recovery were controlled and documented at every session. The following 6 target variables were defined and evaluated by a uniform scale (0=none to 4=very strong):
(§5) The score-level 5 (total) was given at the moment of complete remission and describes consequently the final point of treatment.
(§6) 200 cases were treated in each indication group, the total number amounted to 1,200. The distribution into the two therapy regimens was realised by random sampling. Statistical evaluations were made by means of testing methods described in customary literature.

Gangrene = assay: Controlled clinical trial, total treatment time to complete remission: gangrene; format: in vivo, patients; details: TAUR: T-Irrigation fluid 3% + T-Liquid gel 3%, STANDARD: H2O2 3% + CHKM Solution, n=100 per group
Protocol: as §1, §2, §3, §4, §5, §6

Pericoronitis = assay: Controlled clinical trial, total treatment time to complete remission: pericoronitis; format: in vivo, patients; details: TAUR: T-Irrigation fluid 3% + T-Dental emulsion 3%, STANDARD: NaCl 0.9% + AUREOMYCIN Ointment 3%, n=100 per group
Protocol: as §1, §2, §3, §4, §5, §6

[2] = system: Alveolitis sicca dolorose; assay: Controlled clinical trial, total treatment time to complete remission: alveolitis; format: in vivo, patients; details: TAUR: T-Irrigation fluid 3% + T-Dental emulsion 3%, STANDARD: NaCl 0.9% + AUREOMYCIN Ointment 3%, n=100 per group
Protocol: as §1, §2, §3, §4, §5, §6

Infection Prophylaxis = assay: Controlled clinical trial, total treatment time to complete remission: infection prophylaxis; format: in vivo, patients; details: TAUR: T-Dental gel 2%, STANDARD: CHLORHEXAMED Dental gel 1%, n=100 per group
Protocol: as §1, §2, §3, §4, §5, §6

Abscess = assay: Controlled clinical trial, total treatment time to complete remission: abscess; format: in vivo, patients; details: TAUR: T-Irrigation fluid 3% + T-Dental emulsion 3%, STANDARD: NaCl 0.9% + AUREOMYCIN Ointment 3%, n=100 per group
Protocol: as §1, §2, §3, §4, §5, §6

dentoalveolar infections = assay: Controlled clinical trial, taurolidine vs conventional therapy, all 6 indications pooled: target variables; format: in vivo, patients
Protocol: as §1
The following 6 indications examined were selected specifically on the basis of their incidence and clinical relevance.
as §2, §3, §4, §5, §6

[3] = system: human desmodontal fibroblasts; details: cited from earlier work
[4] = all 6 indications, n=600 per group, maximum
[5] = all 6 indications, n=600 per group, mean
[6] = all 6 indications, n=600 per group, minimum

For Neomycin, the allergy rate [1] is given as 15-30%.

With O=S1(=O)CCN(CN2CCS(=O)(=O)NC2)CN1 [TAUR, taurolidine] the “PARODONTITIS, total treatment TIME (remission), Maximum” value (Parodontitis marginalis; maximum) was 14 days, the “PARODONTITIS, total treatment TIME (remission), Mean” value (Parodontitis marginalis; mean) was 5.1 days and the “PARODONTITIS, total treatment TIME (remission), Minimum” value (Parodontitis marginalis; minimum) was 2 days. The “GANGRENE, total treatment TIME (remission), Maximum” value (Gangrene; maximum) was 10 days, the “GANGRENE, total treatment TIME (remission), Mean” value (Gangrene; mean) was 5.0 days and the “GANGRENE, total treatment TIME (remission), Minimum” value (Gangrene; minimum) was 2 days. The “PERICORONITIS, total treatment TIME (remission), Maximum” value (Pericoronitis; maximum) was 12 days, the “PERICORONITIS, total treatment TIME (remission), Mean” value (Pericoronitis; mean) was 5.1 days and the “PERICORONITIS, total treatment TIME (remission), Minimum” value (Pericoronitis; minimum) was 2 days. For the same molecule, the “ALVEOLITIS, total treatment TIME (remission), Maximum” value ([2]; maximum) was 15 days, the “ALVEOLITIS, total treatment TIME (remission), Mean” value ([2]; mean) was 5.6 days and the “ALVEOLITIS, total treatment TIME (remission), Minimum” value ([2]; minimum) was 3 days. The “INFECT. PROPHYLAXIS, total treatment TIME (remission), Maximum” value (Infection Prophylaxis; maximum) was 13 days, the “INFECT. PROPHYLAXIS, total treatment TIME (remission), Mean” value (Infection Prophylaxis; mean) was 7.5 days and the “INFECT. PROPHYLAXIS, total treatment TIME (remission), Minimum” value (Infection Prophylaxis; minimum) was 3 days. For the same molecule, the “ABSCESS, total treatment TIME (remission), Maximum” value (Abscess; maximum) was 13 days, the “ABSCESS, total treatment TIME (remission), Mean” value (Abscess; mean) was 5.5 days and the “ABSCESS, total treatment TIME (remission), Minimum” value (Abscess; minimum) was 2 days. The “PAIN TIME, Maximum” value (dentoalveolar infections; [4]) was 14 days, the “PERCUSSION TIME, Maximum” value (dentoalveolar infections; [4]) was 13 days and the “PRESSURE PAIN TIME, Maximum” value (dentoalveolar infections; [4]) was 15 days. The “SECRETION TIME, Maximum” value (dentoalveolar infections; [4]) was 15 days, the “SWELLING TIME, Maximum” value (dentoalveolar infections; [4]) was 14 days and the “PERCUSSION TIME, Mean” value (dentoalveolar infections; [5]) was 1.9 days. For the same molecule, the “PRESSURE PAIN TIME, Mean” value (dentoalveolar infections; [5]) was 5.3 days, the “SECRETION TIME, Mean” value (dentoalveolar infections; [5]) was 3.9 days and the “SWELLING TIME, Mean” value (dentoalveolar infections; [5]) was 4.5 days. The “PAIN TIME, Minimum” value (dentoalveolar infections; [6]) was 1 days, the “PERCUSSION TIME, Minimum” value (dentoalveolar infections; [6]) was 1 days and the “PRESSURE PAIN TIME, Minimum” value (dentoalveolar infections; [6]) was 1 days. The “SECRETION TIME, Minimum” value (dentoalveolar infections; [6]) was 1 days, the “SWELLING TIME, Minimum” value (dentoalveolar infections; [6]) was 1 days and the “effectiveness against standard therapy (more rapid recovery)” value (dentoalveolar infections; all 6 indications, p<0.0001) was “superior effectiveness”. For the same molecule, the “side effects after application” value (dentoalveolar infections; during the acute period of inflammation) was “slight pain for some minutes after application”, the “optional antibiotics and analgetics required/administered” value (dentoalveolar infections; taurolidine group vs standard group, p=0.007 resp. p=0.01) was “significantly less” and the “pain-free earlier than under conventional treatment (average)” value (dentoalveolar infections; taurolidine vs conventional treatment) was 2 days.

For [H]/N=C(\N/C(=N/[H])NCCCCCCNC(=N)NC(=N)Nc1ccc(Cl)cc1)Nc1ccc(Cl)cc1 [Chlorhexidine], the cell damage [3] is listed as “accelerated ageing and a cytopathological effect”.
